Reference: patent US20260035376A1, “COMPOSITIONS AND METHODS FOR INHIBITION OF RAS” (TheRas, Inc., priority 2022, published 2026)

Tests used:
[1] = molecular target: T1, Avi-KRAS G12D (1-169) GppNHp/RAF1 RBD-3×FLAG (52-151) (Homo sapiens, UniProt P01116, G12D); assay: Disrupting RAS-effector binding HTRF assay, Raf1 RBD-KRAS G12D-GppNHp; conditions: PPI HTRF, 50 nM Avi-KRAS G12D GppNHp, compound titration 30-0.0045 μM; read-out: Raf1 RBD-KRAS G12D-GppNHp disruption
T1 construct: 50 nM Avi-KRAS G12D (1-169) GppNHp/RAF1 RBD-3×FLAG (52-151)
T1 sequence (P01116 1-169 isoform P01116-2 G12D limits assumed): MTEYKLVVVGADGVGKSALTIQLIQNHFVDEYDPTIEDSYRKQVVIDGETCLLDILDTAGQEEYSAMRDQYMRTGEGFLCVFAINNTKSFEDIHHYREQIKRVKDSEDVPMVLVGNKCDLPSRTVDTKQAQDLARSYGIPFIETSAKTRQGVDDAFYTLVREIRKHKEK
Experimental: (§1) A protein:protein interaction (PPI) Homogeneous Time Resolved Fluorescence (HTRF) assay was used to determine the effectiveness of compounds of the present disclosure in disrupting KRAS protein and effector RAF1 binding.
(§2) The HTRF assay used the following reagents and proteins: (i) 50 nM Avi-KRAS G12D (1-169) GppNHp/RAF1 RBD-3×FLAG (52-151); (ii) 50 nM Avi-KRAS G12R (1-169) GppNHp/RAF1 RBD-3×FLAG (52-151); (iii) 50 nM Avi-KRAS G12V (1-169) GppNHp/RAF1 RBD-3×FLAG (52-151), (iv) 50 nM Avi-KRAS WT (1-169) GppNHp/RAF1 RBD-3×FLAG (52-151); and (v) 75 nM Avi-RAF1 RBD-3×FLAG. The assay buffer included: 50 mM Tris pH 7.5, 100 mM NaCl, 5 mM MgCl2, 0.1% BSA, […], 10% DMSO. The bead buffer included: 50 mM Tris pH 7.5, 0.01% o Tween 20. Assay volume of 20 μL was used in a 384 well plate-low volume format. Compound titration: 30-0.0045 μM, 3× dilution series.
(§3) The HTRF assay employed the following protocol:
(§4) Compounds were dispensed in assay plate (384-well, Grenier Bione #784075) using Echo (model 555) with dose response settings: 200 nL final volume, titration from 30 μM as a 10-point dilution series. Protein mix was prepared in assay buffer, and dispensed on plates, 10 μL per well, then incubated for 1 h at room temperature, with 700 rpm shaking. Reagents mix was prepared and dispensed on plates, 10 μL per well, then incubated for 1 h at room temperature, with 700 rpm shaking.
(§5) Plates were analyzed on an Envision plate reader using the following setting: Excitation 320 nm, Bandwidth 75 nM; Emission 615 nm, Bandwidth 85 nM, Gain 100%, Flashes 100, Lag 60 μs. Data were reported as percentage of activity, with DMSO as 100%. Data were plotted and analyzed using Prism 8.
(§6) The biochemical Raf1-KRAS G12D/G12R/G12V/WT-GppNHP disruption assay IC50 of selected compounds described herein are shown in Table 4.

[2] = molecular target: T2, Avi-KRAS G12V (1-169) GppNHp/RAF1 RBD-3×FLAG (52-151) (Homo sapiens, UniProt P01116, G12V); assay: Disrupting RAS-effector binding HTRF assay, Raf1 RBD-KRAS G12V-GppNHp; conditions: PPI HTRF, 50 nM Avi-KRAS G12V GppNHp, compound titration 30-0.0045 μM; read-out: Raf1 RBD-KRAS G12V-GppNHp disruption
T2 construct: 50 nM Avi-KRAS G12V (1-169) GppNHp/RAF1 RBD-3×FLAG (52-151)
T2 sequence (P01116 1-169 isoform P01116-2 G12V limits assumed): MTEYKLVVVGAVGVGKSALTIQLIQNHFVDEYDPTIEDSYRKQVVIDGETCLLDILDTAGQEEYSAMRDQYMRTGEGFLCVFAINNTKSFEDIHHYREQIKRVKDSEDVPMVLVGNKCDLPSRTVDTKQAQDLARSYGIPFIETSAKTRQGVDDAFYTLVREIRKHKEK
Experimental: as §1, §2, §3, §4, §5, §6

[3] = test system: KRAS G12D protein/effector signaling in GP2d cells; assay: Cell-based pERK HTRF assay in GP2d cell; conditions: 1 h, 60 min incubation
In short: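 GP2d cells (DMEM, 10% FBS) exposed 60 min to a 9-point half-log compound series at 0.25% DMSO, then lysed. Phospho-ERK quantified by HTRF with d2/Eu cryptate antibodies after 4–24 h at room temperature, ex 320/em 615 nm.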

[4] = test system: KRAS G12V protein/effector signaling in SW620 cells; assay: Cell-based pERK HTRF assay in SW620 cell; conditions: Homo sapiens, SW-620, 1 h incubation
Experimental: pERK assay (Perkin Elmer) was used to determine the effectiveness of compounds in disrupting KRAS G12V protein/effector signaling in cells.
On Day 1, cells (SW620) were seeded into 96-well plates at 3×10^4 cells/well in 80 μL complete growth media (DMEM, 10% FBS).
On Day 2, cells were treated with compounds at 0.25% DMSO. The source plate was created with compounds diluted in media at 5-fold the final assay concentration. The compounds were run in a 9-point concentration curve starting at 10 μM, with a half-log dilution between concentrations. 20 μL was transferred onto the cell plates (final volume in wells was 100 μL). Plates were harvested after 1 h incubation by aspirating media and adding kit-supplied 1× supplemented lysis buffer to all wells (50 μL per well). Plates were then placed on a plate shaker and incubated at 850 rpm for an additional 30 min.
Antibody mixture solution was prepared by diluting aliquoted d2 and Eu Cryptate antibodies 1:20 in kit supplied detection buffer, and mixing the diluted antibodies solutions (1:1 v:v). Four μL of this solution was then added to a 384-well detection plate (Perkin Elmer; 6008230).
Samples were homogenized by pipetting up and down and then transferred (16 μL of cell lysates) from the 96-well cell culture plate to two wells of the HTRF 384-well detection plate containing the antibody solution. Plates were centrifuged (524 g for 1 min) and allowed to incubate between 4 and 24 h at room temperature. Maximum signal was reached after 4 h incubation time and remained stable over a period of 24 hours. Therefore, readings could be made between 4 and 24 h of incubation. Plates were centrifuged again (524 g for 1 min), then analyzed on the EnVision plate reader using the following settings: Excitation 320 nm, Bandwidth 75 nm; Emission 615 nm, Bandwidth 85 nm; Gain 100%; Flashes 100; Lag 60 μs.

[5] = molecular target: T3, Avi-KRAS G12R (1-169) GppNHp/RAF1 RBD-3×FLAG (52-151) (Homo sapiens, UniProt P01116, G12R); assay: Disrupting RAS-effector binding HTRF assay, Raf1 RBD-KRAS G12R-GppNHp; conditions: PPI HTRF, 50 nM Avi-KRAS G12R GppNHp, compound titration 30-0.0045 μM; read-out: Raf1 RBD-KRAS G12R-GppNHp disruption
T3 construct: 50 nM Avi-KRAS G12R (1-169) GppNHp/RAF1 RBD-3×FLAG (52-151)
T3 sequence (P01116 1-169 isoform P01116-2 G12R limits assumed): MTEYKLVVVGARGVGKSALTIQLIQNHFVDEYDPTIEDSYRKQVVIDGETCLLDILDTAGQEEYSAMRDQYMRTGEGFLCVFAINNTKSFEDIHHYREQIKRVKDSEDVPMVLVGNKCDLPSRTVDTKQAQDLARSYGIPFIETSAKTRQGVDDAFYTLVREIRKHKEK
Experimental: as §1, §2, §3, §4, §5, §6

[6] = molecular target: T4, Avi-KRAS WT (1-169) GppNHp/RAF1 RBD-3×FLAG (52-151) (Homo sapiens, UniProt P01116); assay: Disrupting RAS-effector binding HTRF assay, Raf1 RBD-KRAS WT-GppNHp; conditions: PPI HTRF, 50 nM Avi-KRAS WT GppNHp, compound titration 30-0.0045 μM; read-out: Raf1 RBD-KRAS WT-GppNHp disruption
T4 construct: 50 nM Avi-KRAS WT (1-169) GppNHp/RAF1 RBD-3×FLAG (52-151)
T4 sequence (P01116 1-169 isoform P01116-2 limits assumed): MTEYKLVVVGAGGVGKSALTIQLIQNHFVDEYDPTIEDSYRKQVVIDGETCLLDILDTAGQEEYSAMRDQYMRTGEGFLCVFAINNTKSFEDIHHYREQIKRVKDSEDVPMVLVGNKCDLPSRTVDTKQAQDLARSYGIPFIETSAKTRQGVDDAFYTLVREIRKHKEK
Experimental: as §1, §2, §3, §4, §5, §6

## N#Cc1c(N)sc2c(F)ccc(-c3c(C(F)(F)F)cc4c(N5CC6CCC(C5)N6)nc(OCCC5CCOC5)nc4c3F)c12 (stereo not drawn) [Compound 50]
[1]
  IC50: 100 to 1000 nM
[2]
  IC50: > 10000 nM
[3]
  IC50: ≤ 100 nM
[4]
  IC50: > 10000 nM
[5]
  IC50: > 10000 nM
[6]
  IC50: 1000 to 10000 nM

## N#Cc1c(N)sc2c(F)ccc(-c3c(C(F)(F)F)cc4c(N5CC6CCC(C5)N6)nc(OCC5CCCCO5)nc4c3F)c12 (stereo not drawn) [Compound 49]
[1]
  IC50: 1000 to 10000 nM
[2]
  IC50: > 10000 nM
[3]
  IC50: ≤ 100 nM
[4]
  IC50: > 10000 nM
[5]
  IC50: > 10000 nM
[6]
  IC50: 1000 to 10000 nM

## N#Cc1c(N)sc2c(F)ccc(-c3c(C(F)(F)F)cc4c(N5CC6CCC(C5)N6)nc(OC[C@@H]5COCCO5)nc4c3F)c12 [Compound 38]
[1]
  IC50: 1000 to 10000 nM
[2]
  IC50: > 10000 nM
[3]
  IC50: ≤ 100 nM
[4]
  IC50: > 10000 nM
[5]
  IC50: > 10000 nM
[6]
  IC50: 1000 to 10000 nM

## CN1C[C@@H](COc2nc(N3CC4CCC(C3)N4)c3cc(C(F)(F)F)c(-c4ccc(F)c5sc(N)c(C#N)c45)c(F)c3n2)CC1=O [Compound 56]
[1]
  IC50: 100 to 1000 nM
[2]
  IC50: 1000 to 10000 nM
[3]
  IC50: ≤ 100 nM
[4]
  IC50: > 10000 nM
[5]
  IC50: 1000 to 10000 nM
[6]
  IC50: 100 to 1000 nM

## CN(c1nc(OCC2CCOCC2)nc2c(F)c(-c3ccc(F)c4sc(N)c(C#N)c34)c(C(F)(F)F)cc12)C1CCNCC1 [Compound 61]
[1]
  IC50: 1000 to 10000 nM
[2]
  IC50: > 10000 nM
[3]
  IC50: > 1000 nM
[4]
  IC50: > 10000 nM
[5]
  IC50: > 10000 nM
[6]
  IC50: > 10000 nM

## N#Cc1c(N)sc2c(F)ccc(-c3c(C(F)(F)F)cc4c(N5CC6CCC(C5)N6)nc(OCCCCO)nc4c3F)c12 [Compound 41]
[1]
  IC50: 100 to 1000 nM
[2]
  IC50: > 10000 nM
[3]
  IC50: ≤ 100 nM
[4]
  IC50: > 10000 nM
[5]
  IC50: > 10000 nM
[6]
  IC50: 1000 to 10000 nM

## N#Cc1c(N)sc2c(F)ccc(-c3c(C(F)(F)F)cc4c(N5CC6CCC(C5)N6)nc(OCCc5ccon5)nc4c3F)c12 [Compound 42]
[1]
  IC50: 100 to 1000 nM
[2]
  IC50: > 10000 nM
[3]
  IC50: ≤ 100 nM
[4]
  IC50: > 10000 nM
[5]
  IC50: 1000 to 10000 nM
[6]
  IC50: 1000 to 10000 nM

## N#Cc1c(N)sc2c(F)ccc(-c3c(C(F)(F)F)cc4c(N5CC6CCC(C5)N6)nc(OC[C@H]5COCCO5)nc4c3F)c12 [Compound 40]
[1]
  IC50: 100 to 1000 nM
[2]
  IC50: 1000 to 10000 nM
[3]
  IC50: ≤ 100 nM
[4]
  IC50: > 10000 nM
[5]
  IC50: 1000 to 10000 nM
[6]
  IC50: 100 to 1000 nM

## N#CCCOc1nc(N2CC3CCC(C2)N3)c2cc(C(F)(F)F)c(-c3ccc(F)c4sc(N)c(C#N)c34)c(F)c2n1 [Compound 44]
[1]
  IC50: 1000 to 10000 nM
[2]
  IC50: > 10000 nM
[3]
  IC50: ≤ 100 nM
[4]
  IC50: > 10000 nM
[5]
  IC50: > 10000 nM
[6]
  IC50: 1000 to 10000 nM

## N#Cc1c(N)sc2c(F)ccc(-c3c(C(F)(F)F)cc4c(N5CC6CCC(C5)N6)nc(OCC5CCS(=O)(=O)CC5)nc4c3F)c12 [Compound 53]
[1]
  IC50: 100 to 1000 nM
[2]
  IC50: 1000 to 10000 nM
[3]
  IC50: ≤ 100 nM
[4]
  IC50: > 10000 nM
[5]
  IC50: > 10000 nM
[6]
  IC50: 100 to 1000 nM

## N#Cc1c(N)sc2c(F)ccc(-c3c(C(F)(F)F)cc4c(N5CC6CCC(C5)N6)nc(OC[C@@H](O)CO)nc4c3F)c12 [Compound 34]
[1]
  IC50: 100 to 1000 nM
[2]
  IC50: 1000 to 10000 nM
[3]
  IC50: 100 to 1000 nM
[4]
  IC50: > 10000 nM
[5]
  IC50: > 10000 nM
[6]
  IC50: 1000 to 10000 nM

## N#Cc1c(N)sc2c(F)ccc(-c3c(C(F)(F)F)cc4c(N5CC6CCC(C5)N6)nc(OCC(CO)CO)nc4c3F)c12 [Compound 30]
[1]
  IC50: 100 to 1000 nM
[2]
  IC50: 1000 to 10000 nM
[3]
  IC50: ≤ 100 nM
[4]
  IC50: > 10000 nM
[5]
  IC50: 1000 to 10000 nM
[6]
  IC50: 100 to 1000 nM

## N#Cc1c(N)sc2c(F)ccc(-c3c(C(F)(F)F)cc4c(N5CC6CCC(C5)N6)nc(OCC5CCOC5)nc4c3F)c12 (stereo not drawn) [Compound 47]
[1]
  IC50: 100 to 1000 nM
[2]
  IC50: > 10000 nM
[3]
  IC50: ≤ 100 nM
[4]
  IC50: > 10000 nM
[5]
  IC50: > 10000 nM
[6]
  IC50: 1000 to 10000 nM

## N#Cc1c(N)sc2c(F)ccc(-c3c(C(F)(F)F)cc4c(N5CC6CCC(C5)N6)nc(OC[C@H](O)CO)nc4c3F)c12 [Compound 29]
[1]
  IC50: 100 to 1000 nM
[2]
  IC50: 1000 to 10000 nM
[3]
  IC50: ≤ 100 nM
[4]
  IC50: 1000 to 10000 nM
[5]
  IC50: 1000 to 10000 nM
[6]
  IC50: 1000 to 10000 nM

## N#Cc1c(N)sc2c(F)ccc(-c3c(C(F)(F)F)cc4c(N5CC6CCC(C5)N6)nc(OCCC5CCOCC5)nc4c3F)c12 [Compound 46]
[1]
  IC50: 100 to 1000 nM
[2]
  IC50: > 10000 nM
[3]
  IC50: ≤ 100 nM
[4]
  IC50: > 10000 nM
[5]
  IC50: > 10000 nM
[6]
  IC50: 1000 to 10000 nM
